Data: ChEMBL document CHEMBL1201862, “PubChem BioAssay data set” (2004)
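Grown in 96-well plates, cells were treated for 48 hours with each compound at five concentrations. Insufficient inhibition: endpoint recorded as highest concentration tested. Abbreviation: GI50, concentration required for 50% inhibition of growth.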 The source made the active and inactive calls. No stated cut-off is given here; in the data, active = GI50 up to about 1.1 µM and inactive = higher.

Key:
Experiment in all cases: NCI-60 cell line screen, 48 h
SR = test system: SR
UACC-62 = test system: UACC-62
CCRF-CEM = test system: CCRF-CEM
CAKI-1 = test system: CAKI-1
A498 = test system: A498
OVCAR-8 = test system: OVCAR-8
LOX IMVI = test system: LOX IMVI
SK-MEL-28 = test system: SK-MEL-28
DLD-1 = test system: DLD-1
RXF 393 = test system: RXF 393
OVCAR-3 = test system: OVCAR-3
786-0 = test system: 786-0
MOLT-4 = test system: MOLT-4
M14 = test system: M14
SF-268 = test system: SF-268
RPMI-8226 = test system: RPMI-8226

Measured: GI50

CN(C)CCNC(=O)c1cccc2ccc(-c3ccc(-c4ccccc4)cc3)nc12
inactive: SR 2.3 µM | UACC-62 18.2 µM | CCRF-CEM 2.72 µM | CAKI-1 5.13 µM | A498 3.44 µM | OVCAR-8 2.56 µM | LOX IMVI 1.63 µM | SK-MEL-28 1.76 µM | DLD-1 2.45 µM | RXF 393 2.22 µM | OVCAR-3 6.01 µM | 786-0 1.79 µM | MOLT-4 1.91 µM | M14 1.77 µM | SF-268 3.37 µM

O=C1C=CC=CC2CC=C[C@@H](O)C12 (stereo not given in full)
inactive: SR 18.8 µM | UACC-62 17.8 µM | CCRF-CEM 15.3 µM | CAKI-1 65.6 µM | A498 15.9 µM | OVCAR-8 29.6 µM | LOX IMVI 15.6 µM | DLD-1 25.1 µM | OVCAR-3 > 10 µM | RPMI-8226 3.41 µM | 786-0 17.2 µM | MOLT-4 20.9 µM | M14 18.7 µM | SF-268 21.3 µM

CCN(CC)c1ccc(/N=C2/C=CC(=O)c3ncccc32)c(C)c1
inactive: SR 2.65 µM | UACC-62 5.06 µM | CCRF-CEM 2.09 µM | CAKI-1 11 µM | OVCAR-8 3.42 µM | LOX IMVI 1.91 µM | SK-MEL-28 11.8 µM | DLD-1 3.42 µM | RXF 393 3.48 µM | OVCAR-3 3.33 µM | RPMI-8226 2.93 µM | 786-0 5.02 µM | MOLT-4 2 µM | M14 3.02 µM | SF-268 8.32 µM

COC(=O)NC(=O)c1cn(CCCOC(=O)CCCCCCCCC(=O)OCCCn2cc(C(=O)NC(=O)OC)c(=O)[nH]c2=O)c(=O)[nH]c1=O
inactive: SR > 100 µM | UACC-62 > 100 µM | CCRF-CEM > 100 µM | CAKI-1 28.8 µM | A498 > 100 µM | OVCAR-8 23.9 µM | LOX IMVI > 100 µM | SK-MEL-28 > 100 µM | DLD-1 > 100 µM | RXF 393 29.4 µM | OVCAR-3 > 100 µM | RPMI-8226 > 100 µM | 786-0 88.5 µM | MOLT-4 > 100 µM | M14 > 100 µM | SF-268 31.3 µM

O=C(/C=C/c1ccc(OCCCOc2ccc(/C=C/C(=O)c3ccccc3)cc2)cc1)c1ccccc1
inactive: SR > 100 µM | UACC-62 > 100 µM | CCRF-CEM > 100 µM | A498 > 100 µM | OVCAR-8 > 100 µM | LOX IMVI > 100 µM | SK-MEL-28 > 100 µM | DLD-1 > 100 µM | RXF 393 > 100 µM | OVCAR-3 > 100 µM | RPMI-8226 50.7 µM | 786-0 57.4 µM | MOLT-4 > 100 µM | M14 > 100 µM | SF-268 > 100 µM

CN(C)CC1CCCC(CN(C)C)C1=NOC(=O)c1ccccc1 (stereo not given)
inactive: SR > 100 µM | UACC-62 > 100 µM | CCRF-CEM > 100 µM | A498 > 100 µM | OVCAR-8 > 100 µM | LOX IMVI > 100 µM | SK-MEL-28 > 100 µM | DLD-1 > 100 µM | OVCAR-3 > 100 µM | RPMI-8226 > 100 µM | 786-0 > 100 µM | MOLT-4 > 100 µM | M14 > 100 µM | SF-268 > 100 µM

CN(CCN(C)C(=O)CCOS(C)(=O)=O)C(=O)CCOS(C)(=O)=O
inactive: SR 15.6 µM | UACC-62 43.5 µM | CCRF-CEM 24.3 µM | CAKI-1 > 100 µM | A498 > 100 µM | OVCAR-8 > 100 µM | LOX IMVI > 100 µM | SK-MEL-28 > 100 µM | DLD-1 > 100 µM | OVCAR-3 > 100 µM | RPMI-8226 > 100 µM | 786-0 > 100 µM | MOLT-4 41 µM | M14 > 100 µM | SF-268 77.8 µM

CC1=C(C)C(=O)c2c(cc3ccc4ccccc4n23)C1=O
inactive: SR > 100 µM | UACC-62 > 100 µM | CCRF-CEM > 100 µM | A498 > 100 µM | OVCAR-8 > 100 µM | LOX IMVI > 100 µM | SK-MEL-28 > 100 µM | DLD-1 > 100 µM | RXF 393 > 100 µM | OVCAR-3 > 100 µM | RPMI-8226 > 100 µM | 786-0 > 100 µM | MOLT-4 > 100 µM | M14 > 100 µM | SF-268 > 100 µM

COC(=O)C1C(=O)O[C@@H](c2ccc(OC)cc2)C1C(=O)OC (stereo not given in full)
inactive: SR > 100 µM | UACC-62 > 100 µM | CCRF-CEM > 100 µM | CAKI-1 > 100 µM | A498 52.4 µM | OVCAR-8 > 100 µM | LOX IMVI > 100 µM | SK-MEL-28 > 100 µM | DLD-1 > 100 µM | RXF 393 > 100 µM | OVCAR-3 > 100 µM | RPMI-8226 > 100 µM | 786-0 > 100 µM | MOLT-4 > 100 µM | M14 > 100 µM | SF-268 > 100 µM
